Laboratory results taken from ChEMBL document CHEMBL1140537, “DNA cleavage by photolysis of aryl sulfoxides” (Bioorg Med Chem Lett, 2007).
The source made the active and inactive calls. The rule behind the calls is not given here.

Key:
Homo sapiens [1] = species: Homo sapiens; experiment: Cleavage of DNA at 180 uM
Homo sapiens [2] = species: Homo sapiens; experiment: Cleavage of DNA at 180 uM in presence of cysteine
Homo sapiens [3] = species: Homo sapiens; experiment: Cleavage of DNA at 180 uM in anaerobic condition
Homo sapiens [4] = species: Homo sapiens; experiment: Cleavage of DNA at 360 uM

Row | SMILES | Activity (Homo sapiens [1]) | Activity (Homo sapiens [2]) | Activity (Homo sapiens [3]) | Activity (Homo sapiens [4])
1 | [O-][S+](c1ccccc1)c1ccccc1 | Active | inactive | inactive | –
2 | C[S+]([O-])c1ccccc1 (centres undefined) | – | – | – | Active
